From patent US12403116B2, “Hydroxypentyl benzoic acid diester compound, and preparation method and pharmaceutical application thereof” (CHINESE ACADEMY OF MEDICAL SCIENCES INSTITUTE OF MEDICINAL …, priority 2022, dated 2025)

Assays:
Format in all cases: in vivo, rat
MCAO/R model rats [1] = assay: Neurological function evaluation (Longa 5-level score) in MCAO/R model rats; conditions: for neurological function scores: 24 hours of reperfusion, Longa score; for neurological function scores compared with the NBP group / efficiency (vs NBP group): NBP 5 mg/kg; for neurological function scores compared with the NBP group: result in words; for efficiency (vs L-NBP group): L-NBP 2.5 mg/kg
Protocol: (§1) • SHAM group: sham surgery group • Middle cerebral artery occlusion (MCAO) model group • Butylphthalide (NBP): 5 mg/kg • Levobutylphthalide (L-NBP): 2.5 mg/kg • NRB (Compound 1): 15 mg/kg (equivalent to a dose of 4.9 mg/kg of NBP through conversion) • Low dose of L-NRB (compound 2): 7.5 mg/kg (equivalent to a dose of 2.45 mg/kg of L-NBP through conversion) • High dose of L-NRB (compound 2): 15 mg/kg (equivalent to a dose of 4.9 mg/kg of L-NBP through conversion) • Aspirin group (ASP): 10 mg/kg 2. Administration Method
(§2) The rats in the sham surgery group and the MCAO model group were administered the same amount of normal saline by intraperitoneal administration for 5 consecutive days before modeling, and then the MCAO operation was performed.
(§3) The middle cerebral artery occlusion (MCAO) model was made by thread-occlusion method. The operation process was strictly conducted in aseptic mode. The main operation process was as follows: the rat was anesthetized by intraperitoneal injection of chloral hydrate, the common carotid artery (CCA), external carotid artery (ECA) and internal carotid artery (ICA) were separated, the common carotid artery was clamped with a microarterial clamp, and the branches of the external carotid artery were electrocoagulated with a bipolar electrocoagulation pen. The main trunk of the external carotid artery was separated and ligated at a distance of 3-4 mm from the bifurcation of the common carotid artery. The internal carotid artery was temporarily clamped with a micro artery clamp. A small incision into the external carotid artery was cut with an ophthalmic scissors, and a 4-0 monofilament nylon thread coated with methylpolysiloxane was inserted. A loose knot was made at the incision of the external carotid artery to block the blood reflux of the internal carotid artery. The micro artery clamp of the internal carotid artery was removed, and the nylon thread is gently pushed into the internal carotid artery to reach the anterior cerebral artery in the skull, to block the opening of the middle cerebral artery (MCA), and the insert depth is approximately 18-22 mm. The microarterial clamp of the common carotid artery was removed, the subcutaneous tissue and skin were sutured layer by layer after disinfection, and the nylon thread was slowly draw out at 2 hours after operation, and the reperfusion was conducted. In the sham surgery group, all operations were the same except that nylon thread was not inserted. The rectal temperature of all rats was maintained at 37° C. throughout the entire experimental process.
After 24 hours of reperfusion, all rats were evaluated for neurobehavioral scores using the Longa 5-level scoring method. Longa scoring standard: 0, normal, without neurological impairment; 1, left forelimb extension disorder, weakened function; 2, circling to the left, paralysis of the left forelimb and severe impairment of function, and the rat keeps twisting towards the damaged area after lifting the rat's tail; 3, when walking, tilt to the left; 4, limb paralysis, unconscious consciousness.

MCAO/R model rats [2] = assay: Cerebral infarction area (TTC staining) in MCAO/R model rats; conditions: for infarction area (%): 24 hours of reperfusion, TTC staining; for efficiency (vs L-NBP model group): L-NBP 2.5 mg/kg; for efficiency (vs NBP model group) / cerebral infarction area compared with the NBP group: NBP 5 mg/kg; for cerebral infarction area compared with the NBP group: result in words
Protocol: as §1, §2, §3
After 24 hours of reperfusion, the cerebral infarction area was measured using tetrazolium red (TTC) staining. The rats were killed by cutting the neck, and the whole brain was quickly taken out. After being placed in the refrigerator at −20° C. for a short time and placed on the ice plate, and the olfactory bulb was removed. The forebrain was cut into six slices with a thickness of 2 mm along the coronal plane. The brain slices were placed in 1.5 mL of 2% TTC solution and incubated in dark for 30 minutes. Then the brain slices were fixed in 10% paraformaldehyde overnight, and then photographed for analysis. Use Image-J software to measure and calculate the volume of cerebral infarction.

[3] = system: rats with middle cerebral artery occlusion (MCAO) model; assay: Pre-experiments: reduction of cerebral infarction area in MCAO model rats; conditions: result in words; C compared with B, D compared among 1:2 conjugates
Description: Based on the effects of both butylphthalide and dexborneol on improving cerebral circulation and protecting cardio cerebral vessels, the inventor team of this application adopted progressive pre-experiments. First, butylphthalide and dexborneol were simply combined in a molar ratio 1:1 to form a composition.

[4] = neurological function score, dose 7.5 mg/kg
[5] = neurological function score, dose 15 mg/kg
[6] = cerebral infarction area, dose 7.5 mg/kg
[7] = cerebral infarction area, dose 15 mg/kg
[8] = neurological function score, dose 2.5 mg/kg

CCCCC1OC(=O)c2ccccc21 (racemic) [NBP, (R/S)-3-n-butyl-1(3H)-isobenzofuranone, reference compound]
neurological function scores (MCAO/R model rats [1]; dose 5 mg/kg): 2.3 ± 1.0
inhibition rate (vs model group) (MCAO/R model rats [1]; neurological function score, dose 5 mg/kg): 32.4%
infarction inhibition rate (vs model group) (MCAO/R model rats [2]; dose 5 mg/kg): 34.2%
infarction area (%) (MCAO/R model rats [2]; dose 5 mg/kg): 19.4 ± 7.0 %

CCCC[C@H](OC(=O)CCC(=O)OC1CC2CCC1(C)C2(C)C)c1ccccc1C(=O)OC1CC2CCC1(C)C2(C)C (stereo in doubt) [L-NRB]
neurological function scores (MCAO/R model rats [1]; dose 7.5 mg/kg): 1.4 ± 0.7**$
neurological function scores compared with the NBP group (MCAO/R model rats [1]; dose 7.5 mg/kg, p<0.05): significant reductions
neurological function scores (MCAO/R model rats [1]; dose 15 mg/kg): 1.1 ± 0.4**$$&
neurological function scores compared with the NBP group (MCAO/R model rats [1]; dose 15 mg/kg): significant reductions
inhibition rate (vs model group) (MCAO/R model rats [1]; [4]): 58.8%
efficiency (vs L-NBP group) (MCAO/R model rats [1]; [4]): 22.2%
efficiency (vs NBP group) (MCAO/R model rats [1]; [4]): 39.1%
inhibition rate (vs model group) (MCAO/R model rats [1]; [5]): 67.6%
efficiency (vs ASP group) (MCAO/R model rats [1]; neurological function score, dose 15 mg/kg, ASP 10 mg/kg): 31.3%
efficiency (vs L-NBP group) (MCAO/R model rats [1]; [5]): 38.9%
efficiency (vs NBP group) (MCAO/R model rats [1]; [5]): 52.2%
efficiency (vs L-NBP model group) (MCAO/R model rats [2]; [6]): 29.1%
efficiency (vs NBP model group) (MCAO/R model rats [2]; [6]): 42.3%
Efficiency (vs ASP model group) (MCAO/R model rats [2]; cerebral infarction area, dose 15 mg/kg, ASP 10 mg/kg): 56.6%
efficiency (vs L-NBP model group) (MCAO/R model rats [2]; [7]): 58.2%
efficiency (vs NBP model group) (MCAO/R model rats [2]; [7]): 66.0%
infarction inhibition rate (vs model group) (MCAO/R model rats [2]; dose 7.5 mg/kg): 62.0%
infarction area (%) (MCAO/R model rats [2]; dose 7.5 mg/kg): 11.2 ± 4.4**$ %
cerebral infarction area compared with the NBP group (MCAO/R model rats [2]; dose 7.5 mg/kg, p<0.05): significant reductions
infarction inhibition rate (vs model group) (MCAO/R model rats [2]; dose 15 mg/kg): 77.6%
infarction area (%) (MCAO/R model rats [2]; dose 15 mg/kg): 6.6 ± 3.5**$$&& %
cerebral infarction area compared with the NBP group (MCAO/R model rats [2]; dose 15 mg/kg): significant reductions

CC(=O)Oc1ccccc1C(=O)O [ASP, Aspirin, reference compound]
neurological function scores (MCAO/R model rats [1]; dose 10 mg/kg): 1.6 ± 0.5
inhibition rate (vs model group) (MCAO/R model rats [1]; neurological function score, dose 10 mg/kg): 52.9%
infarction inhibition rate (vs model group) (MCAO/R model rats [2]; dose 10 mg/kg): 48.5%
infarction area (%) (MCAO/R model rats [2]; dose 10 mg/kg): 15.2 ± 7.0 %

CCCC[C@@H]1OC(=O)c2ccccc21 [L-NBP, Levobutylphthalide, reference compound]
neurological function scores (MCAO/R model rats [1]; dose 2.5 mg/kg): 1.8 ± 0.6
inhibition rate (vs model group) (MCAO/R model rats [1]; [8]): 47.1%
efficiency (vs NBP group) (MCAO/R model rats [1]; [8]): 21.7%
efficiency (vs NBP model group) (MCAO/R model rats [2]; cerebral infarction area, dose 2.5 mg/kg): 18.6%
infarction inhibition rate (vs model group) (MCAO/R model rats [2]; dose 2.5 mg/kg): 46.4%
infarction area (%) (MCAO/R model rats [2]; dose 2.5 mg/kg): 15.8 ± 6.7 %

CCCCC(OC(=O)CCC(=O)O[C@@H]1C[C@@H]2CC[C@@]1(C)C2(C)C)c1ccccc1C(=O)O[C@@H]1C[C@@H]2CC[C@@]1(C)C2(C)C (some centres unmarked) [NRB]
neurological function scores (MCAO/R model rats [1]; dose 15 mg/kg): 1.3 ± 0.5**$
neurological function scores compared with the NBP group (MCAO/R model rats [1]; dose 15 mg/kg): significant reductions
inhibition rate (vs model group) (MCAO/R model rats [1]; [5]): 61.8%
efficiency (vs NBP group) (MCAO/R model rats [1]; [5]): 43.5%
efficiency (vs NBP model group) (MCAO/R model rats [2]; [7]): 44.8%
infarction inhibition rate (vs model group) (MCAO/R model rats [2]; dose 15 mg/kg): 63.7%
infarction area (%) (MCAO/R model rats [2]; dose 15 mg/kg): 10.7 ± 7.9**$ %
cerebral infarction area compared with the NBP group (MCAO/R model rats [2]; dose 15 mg/kg): significant reductions

CCCCC(OC(C)=O)c1ccccc1C(=O)O[C@@H]1C[C@@H]2CC[C@@]1(C)C2(C)C (some centres unmarked) [formula B]
activity (pre-experiments, comparison between conjugates) [3]: only slightly improved

CCCCC(OC(=O)CCC(=O)O[C@@H]1C[C@@H]2CC[C@@]1(C)C2(C)C)c1ccccc1C(=O)O[C@@H]1C[C@@H]2CC[C@@]1(C)C2(C)C (some centres unmarked) [formula C]
activity (pre-experiments, comparison between conjugates) [3]: significantly better

CCCC[C@H](OC(=O)CCC(=O)O[C@@H]1C[C@@H]2CC[C@@]1(C)C2(C)C)c1ccccc1C(=O)O[C@@H]1C[C@@H]2CC[C@@]1(C)C2(C)C [formula D]
activity (pre-experiments, comparison between conjugates) [3]: superior
